Results taken from ChEMBL document CHEMBL1201862, “PubChem BioAssay data set” (2004).
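Five concentrations, 48 hours, 96-well plates. At the GI50, growth is halved.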 Calls of active or inactive are those of the source. Cut-off read from the data, not from the text of the source: active = GI50 up to about 1.1 µM and inactive = higher.

Columns and labels:
Assay in all cases: growth of human tumour cells (NCI), 48 h
[1] = system: U-251
[2] = system: SW-620
[3] = system: CAKI-1
[4] = system: NCI-H23
[5] = system: HCC 2998
[6] = system: OVCAR-8
[7] = system: A498
[8] = system: RXF 393
[9] = system: HCT-15
[10] = system: Malme-3M
[11] = system: UACC-257
[12] = system: SF-268
[13] = system: NCI-H522
[14] = system: OVCAR-5
[15] = system: CCRF-CEM
[16] = system: SNB-19
[17] = system: NCI-H226
[18] = system: ACHN
[19] = system: KM-20L2
[20] = system: UACC-62
[21] = system: M19-MEL
[22] = system: SK-MEL-28
[23] = system: UO-31
[24] = system: HOP-92
[25] = system: OVCAR-3
[26] = system: SNB-78
[27] = system: K562
[28] = system: SN12C
[29] = system: HOP-62
[30] = system: DMS-114
[31] = system: 786-0
[32] = system: SNB-75
[33] = system: OVCAR-4
[34] = system: LXFL 529
[35] = system: M14
[36] = system: MOLT-4
[37] = system: TK-10
[38] = system: RPMI-8226
[39] = system: HCT-116
[40] = system: SK-MEL-5
[41] = system: NCI-H460
[42] = system: SF-295
[43] = system: SR
[44] = system: EKVX
[45] = system: IGROV-1
[46] = system: SK-OV-3
[47] = system: DMS-273
[48] = system: RXF 631
[49] = system: A549
[50] = system: HOP-18
[51] = system: COLO 205
[52] = system: LOX IMVI
[53] = system: SK-MEL-2
[54] = system: DLD-1
[55] = system: HT-29
[56] = system: KM12
[57] = system: HL-60
[58] = system: SF-539

CCCCCCCCCCCC(=O)OCCOCCOCCOCCOCCOC(=O)CCCCCCCCCCC
GI50 [1]: > 100 µM (inactive) | GI50 [2]: > 100 µM (inactive) | GI50 [3]: > 100 µM (inactive) | GI50 [4]: > 100 µM (inactive) | GI50 [5]: > 100 µM (inactive) | GI50 [6]: > 100 µM (inactive) | GI50 [7]: > 100 µM (inactive) | GI50 [8]: > 100 µM (inactive) | GI50 [9]: > 100 µM | GI50 [10]: > 100 µM (inactive) | GI50 [11]: > 100 µM (inactive) | GI50 [12]: > 100 µM (inactive) | GI50 [13]: > 100 µM (inactive) | GI50 [14]: > 100 µM (inactive) | GI50 [15]: > 100 µM (inactive) | GI50 [16]: > 100 µM (inactive) | GI50 [17]: > 100 µM (inactive) | GI50 [18]: > 100 µM (inactive) | GI50 [19]: > 100 µM (inactive) | GI50 [20]: 56.2 µM (inactive) | GI50 [21]: > 100 µM (inactive) | GI50 [22]: > 100 µM (inactive) | GI50 [23]: > 100 µM (inactive) | GI50 [24]: > 100 µM (inactive) | GI50 [25]: > 100 µM (inactive) | GI50 [26]: > 100 µM (inactive) | GI50 [27]: > 100 µM (inactive) | GI50 [28]: > 100 µM (inactive) | GI50 [29]: > 100 µM (inactive) | GI50 [30]: > 100 µM (inactive) | GI50 [31]: > 100 µM (inactive) | GI50 [32]: > 100 µM (inactive) | GI50 [33]: > 100 µM (inactive) | GI50 [34]: > 100 µM (inactive) | GI50 [35]: > 100 µM (inactive) | GI50 [36]: > 100 µM (inactive) | GI50 [37]: > 100 µM (inactive) | GI50 [38]: > 100 µM (inactive) | GI50 [39]: > 100 µM (inactive) | GI50 [40]: > 100 µM (inactive) | GI50 [41]: > 100 µM (inactive) | GI50 [42]: > 100 µM (inactive) | GI50 [43]: > 100 µM (inactive) | GI50 [44]: > 100 µM (inactive) | GI50 [45]: > 100 µM (inactive) | GI50 [46]: > 100 µM (inactive) | GI50 [47]: > 100 µM (inactive) | GI50 [48]: > 100 µM (inactive) | GI50 [49]: > 100 µM (inactive) | GI50 [50]: > 100 µM (inactive) | GI50 [51]: > 100 µM (inactive) | GI50 [52]: > 100 µM (inactive) | GI50 [53]: > 100 µM (inactive) | GI50 [54]: > 100 µM (inactive) | GI50 [55]: > 100 µM (inactive) | GI50 [56]: > 100 µM (inactive) | GI50 [57]: 37.6 µM (inactive)

C/C=C/C=N/N(c1nnc(-c2ccccc2)c(-c2ccccc2)n1)S(=O)(=O)c1ccc(C)cc1
GI50 [1]: 4.04 µM (inactive) | GI50 [2]: 4.05 µM (inactive) | GI50 [3]: 16.9 µM (inactive) | GI50 [4]: 14 µM (inactive) | GI50 [5]: 17 µM (inactive) | GI50 [6]: 5.53 µM (inactive) | GI50 [7]: 14.3 µM (inactive) | GI50 [9]: 5.14 µM | GI50 [10]: 10.4 µM (inactive) | GI50 [11]: 8.34 µM (inactive) | GI50 [12]: 5.46 µM (inactive) | GI50 [13]: 4.75 µM (inactive) | GI50 [14]: 19.3 µM (inactive) | GI50 [15]: 2.49 µM (inactive) | GI50 [17]: 15.3 µM (inactive) | GI50 [18]: 11.8 µM (inactive) | GI50 [19]: 13.2 µM (inactive) | GI50 [20]: 3.33 µM (inactive) | GI50 [21]: 13.2 µM (inactive) | GI50 [22]: 13.5 µM (inactive) | GI50 [23]: 5.74 µM (inactive) | GI50 [24]: 16.2 µM (inactive) | GI50 [25]: 12.6 µM (inactive) | GI50 [26]: 15.3 µM (inactive) | GI50 [27]: 6.37 µM (inactive) | GI50 [28]: 8.13 µM (inactive) | GI50 [30]: 13 µM (inactive) | GI50 [31]: 6.78 µM (inactive) | GI50 [32]: 3.61 µM (inactive) | GI50 [33]: 13.2 µM (inactive) | GI50 [34]: 7.21 µM (inactive) | GI50 [35]: 4.69 µM (inactive) | GI50 [36]: 3.18 µM (inactive) | GI50 [37]: 14.9 µM (inactive) | GI50 [38]: 4.19 µM (inactive) | GI50 [39]: 8.09 µM (inactive) | GI50 [40]: 8.22 µM (inactive) | GI50 [41]: 11.1 µM (inactive) | GI50 [42]: 11 µM (inactive) | GI50 [43]: 3.48 µM (inactive) | GI50 [44]: 17.8 µM (inactive) | GI50 [45]: 13.1 µM (inactive) | GI50 [46]: 18.7 µM (inactive) | GI50 [47]: 11.1 µM (inactive) | GI50 [48]: 17.5 µM (inactive) | GI50 [58]: 11.5 µM (inactive) | GI50 [49]: 12 µM (inactive) | GI50 [50]: 14.2 µM (inactive) | GI50 [51]: 17.1 µM (inactive) | GI50 [52]: 3.6 µM (inactive) | GI50 [53]: 11.4 µM (inactive) | GI50 [54]: 5.05 µM (inactive) | GI50 [55]: 11.7 µM (inactive) | GI50 [56]: 9.06 µM (inactive) | GI50 [57]: 2.33 µM (inactive)

CC(=O)Nc1ccc(/C=c2\sc3nnc(-c4cccnc4)n3c2=O)cc1
GI50 [1]: 17.8 µM (inactive) | GI50 [2]: 17.8 µM (inactive) | GI50 [3]: 17.9 µM (inactive) | GI50 [4]: 15.8 µM (inactive) | GI50 [5]: 20.7 µM (inactive) | GI50 [6]: 17.6 µM (inactive) | GI50 [7]: 75.2 µM (inactive) | GI50 [8]: 22.3 µM (inactive) | GI50 [9]: 17.6 µM | GI50 [10]: 19.1 µM (inactive) | GI50 [11]: 21.8 µM (inactive) | GI50 [12]: 25.2 µM (inactive) | GI50 [13]: 16.1 µM (inactive) | GI50 [14]: 27.5 µM (inactive) | GI50 [15]: 17.4 µM (inactive) | GI50 [16]: 24.2 µM (inactive) | GI50 [17]: 49.7 µM (inactive) | GI50 [18]: 14 µM (inactive) | GI50 [19]: 17.5 µM (inactive) | GI50 [20]: 13.4 µM (inactive) | GI50 [21]: 18.1 µM (inactive) | GI50 [22]: 17 µM (inactive) | GI50 [23]: 12 µM (inactive) | GI50 [24]: 12 µM (inactive) | GI50 [25]: 17.8 µM (inactive) | GI50 [26]: 34.4 µM (inactive) | GI50 [27]: 22.4 µM (inactive) | GI50 [28]: 14.4 µM (inactive) | GI50 [29]: 21.8 µM (inactive) | GI50 [30]: 17.9 µM (inactive) | GI50 [31]: 16.6 µM (inactive) | GI50 [32]: 22.2 µM (inactive) | GI50 [33]: 14.6 µM (inactive) | GI50 [34]: 15.9 µM (inactive) | GI50 [35]: 18.7 µM (inactive) | GI50 [36]: 19.7 µM (inactive) | GI50 [37]: 21.6 µM (inactive) | GI50 [39]: 15.6 µM (inactive) | GI50 [40]: 17.4 µM (inactive) | GI50 [41]: 16.3 µM (inactive) | GI50 [42]: 36.4 µM (inactive) | GI50 [43]: 17.3 µM (inactive) | GI50 [44]: 18.9 µM (inactive) | GI50 [45]: 16.9 µM (inactive) | GI50 [46]: 24 µM (inactive) | GI50 [47]: 25.1 µM (inactive) | GI50 [48]: 18.1 µM (inactive) | GI50 [58]: 18.7 µM (inactive) | GI50 [49]: 42.1 µM (inactive) | GI50 [50]: 19.1 µM (inactive) | GI50 [51]: 15.4 µM (inactive) | GI50 [52]: 16.5 µM (inactive) | GI50 [53]: 20.9 µM (inactive) | GI50 [54]: 17.3 µM (inactive) | GI50 [55]: 18.5 µM (inactive) | GI50 [56]: 16.8 µM (inactive) | GI50 [57]: 16.4 µM (inactive)
